# In patent US5053333A, “Protease” (M & D Research Co., Ltd., priority 1988, dated 1991):
# Read-outs that look alike come from different tables or passages of the source. Numbered stars: 1 amine (or outer) side, 2 acyl side, 3 side chain; on linkers, the order of the positions; unused ones are H or OH. Square brackets hold non-standard residues; d marks the D form. Peptide text beside a SMILES is read from it. * marks the point of attachment. Sta = CC(C)C[C@H](N)[C@@H](O)CC(=O)O; AMC = Cc1cc(=O)oc2cc(N*)ccc12; Suc = O=C(CCC(=O)[*:2])[*:1]; Isovaleryl = CC(C)CC(=O)*; Cbz = O=C(OCc1ccccc1)*; Boc = CC(C)(C)OC(=O)*; CO = O=C([*:1])[*:2]
# Legend:
# [1] = tested on: Benz-I (protease specific for basic amino acid residue); test: Behavior of Benz-I against various inhibitors (residual activity); assay type: biochemical, Kluyveromyces lactis IFO 1903
# [2] = tested on: Benz-II (protease specific for basic amino acid residue); test: Behavior of Benz-II against various inhibitors (residual activity); assay type: biochemical, Kluyveromyces lactis IFO 1903
# [3] = tested on: protease specific for basic amino acid residue from Sporobolomyces odrus IFO 1597; test: Behavior of Sporobolomyces protease against various inhibitors (residual activity); assay type: biochemical; settings: 25° C. 30 minutes
# [4] = tested on: protease specific for basic amino acid residue from Sporobolomyces odrus IFO 1597; test: Substrate specificity of Sporobolomyces protease with fluorescent substrates; assay type: biochemical; settings: activity for Boc-Gln-Arg-Arg-MCA being 100; standard conditions
# Experimental: A reaction mixture containing 50 μmol of tris hydrochloride buffer solution (pH 7.0), 10 mg of Lubrol PX, 0.5 μmol of calcium chloride, 0.1 μmol of Boc-Gln-Arg-Arg-MCA, wherein Boc represents a t-butyloxycalbonyl group while MCA represents 4-methylcoumarin-7-amide and the enzyme is allowed to react at 30° C. The fluorescence (excition wavelength: 380 nm, emission wavelength: 460 nm) originating from the 7-amino-4-methylcoumarin (AMC) thus formed is monitored. The amount of the enzyme capable of catalyzing the release of 1 nmol of AMC per one minute is defined as 1 U.
# The activities of the enzyme for various fluorescent substrates were determined under standard reaction conditions.
# [5] = inhibitor 5 mM, 25° C. 30 minutes, control lot = 100
# [6] = inhibitor 1 mM, 25° C. 30 minutes, control lot = 100
# [7] = inhibitor 10 μM, 25° C. 30 minutes, control lot = 100
# [8] = inhibitor 0.1%, 25° C. 30 minutes, control lot = 100
# [9] = inhibitor 0.2 mM, 25° C. 30 minutes, control lot = 100
# [10] = inhibitor 4 M, 25° C. 30 minutes, control lot = 100
molecule,measurement,setting,value
CCCCC(NC(=O)C=[N+]=[N-])C(=O)OC (racemic) [diazoacetyl-DL-norleucine methyl ester],Residual activity of Benz-I,[1]; [5],85
same,Residual activity of Benz-II,[2]; [5],73
same,relative activity (residual),"[3]; Ca2+ +, inhibitor 5 mM",72%
O[C@H](CS)[C@H](O)CS (racemic) [dithiothreitol],Residual activity of Benz-I,[1]; [6],96
same,Residual activity of Benz-II,[2]; [6],128
same,relative activity (residual),"[3]; Ca2+ +, inhibitor 1 mM",97%
OCCS [2-mercaptoethanol],Residual activity of Benz-I,[1]; [6],112
same,Residual activity of Benz-II,[2]; [6],153
same,relative activity (residual),"[3]; Ca2+ +, inhibitor 1 mM",95%
Cc1cc(=O)oc2cc(NC(=O)[C@@H](N)CCCNC(=N)N)ccc12 [Arg--MCA],Activity (relative) for substrate,[4],< 1%
CC[C@H](C)[C@H](NC(=O)OC(C)(C)C)C(=O)N[C@@H](CCC(=O)O)C(=O)NCC(=O)N[C@@H](CCCNC(=N)N)C(=O)Nc1ccc2c(C)cc(=O)oc2c1 [Boc--Ile--Glu--Gly--Arg--MCA] (Boc-IEGR-{AMC}),Activity (relative) for substrate,[4],5%
Cc1cc(=O)oc2cc(NC(=O)[C@H](CCCNC(=N)N)NC(=O)CNC(=O)[C@H](CC(C)C)NC(=O)OC(C)(C)C)ccc12 [Boc--Leu--Gly--Arg--MCA] (Boc-Leu-Gly-Arg-{AMC}),Activity (relative) for substrate,[4],1%
Cc1cc(=O)oc2cc(NC(=O)[C@H](CCCCN)NC(=O)[C@H](CC(C)C)NC(=O)[C@@H](NC(=O)OC(C)(C)C)C(C)C)ccc12 [Boc--Val--Leu--Lys--MCA] (Boc-Val-Leu-Lys-{AMC}),Activity (relative) for substrate,[4],0%
Cc1cc(=O)oc2cc(NC(=O)[C@H](CCCNC(=N)N)NC(=O)c3ccccc3)ccc12 [Bz--Arg--MCA],Activity (relative) for substrate,[4],0%
CC(C)C[C@H](NC(=O)[C@H]1O[C@@H]1C(=O)O)C(=O)NCCCCNC(=N)N [E-64],Residual activity of Benz-I,[1]; [7],99
same,Residual activity of Benz-II,[2]; [7],96
same,relative activity (residual),"[3]; Ca2+ +, inhibitor 10 μM",100%
Cc1cc(=O)oc2cc(NC(=O)[C@@H](N)CC(C)C)ccc12 [Leu--MCA],Activity (relative) for substrate,[4],< 1%
CCN1C(=O)C=CC1=O [N-ethylmaleimide],Residual activity of Benz-I,[1]; [6],101
same,Residual activity of Benz-II,[2]; [6],94
same,relative activity (residual),"[3]; Ca2+ +, inhibitor 1 mM",125%
Cc1cc(=O)oc2cc(NC(=O)[C@H](CCCNC(=N)N)NC(=O)[C@H](Cc3ccccc3)NC(=O)[C@@H]3CCCN3)ccc12 [Pro--Phe--Arg--MCA] (H-Pro-Phe-Arg-{AMC}),Activity (relative) for substrate,[4],0%
Cc1cc(=O)oc2cc(NC(=O)[C@H](Cc3ccccc3)NC(=O)[C@@H]3CCCN3C(=O)[C@H](C)NC(=O)[C@H](C)NC(=O)CCC(=O)O)ccc12 [Suc--Ala--Ala--Pro--Phe--MCA] (Suc-AAPF-{AMC}),Activity (relative) for substrate,[4],< 1%
Cc1cc(=O)oc2cc(NC(=O)[C@H](C)NC(=O)[C@@H]3CCCN3C(=O)[C@H](C)NC(=O)CCC(=O)O)ccc12 [Suc--Ala--Pro--Ala--MCA] (Suc-Ala-Pro-Ala-{AMC}),Activity (relative) for substrate,[4],0%
Cc1cc(=O)oc2cc(NC(=O)[C@@H]3CCCN3C(=O)CNC(=O)CCC(=O)O)ccc12 [Suc--Gly--Pro--MCA] (Suc-Gly-Pro-{AMC}),Activity (relative) for substrate,[4],0%
Cc1cc(=O)oc2cc(NC(=O)[C@H](Cc3ccc(O)cc3)NC(=O)[C@@H](NC(=O)[C@H](CC(C)C)NC(=O)[C@H](CC(C)C)NC(=O)CCC(=O)O)C(C)C)ccc12 [Suc--Leu--Leu--Val--Tyr--MCA] (Suc-LLVY-{AMC}),Activity (relative) for substrate,[4],0%
Cc1cc(=O)oc2cc(NC(=O)[C@H](CCCNC(=N)N)NC(=O)[C@H](CCCNC(=N)N)NC(=O)OCc3ccccc3)ccc12 [Z--Arg--Arg--MCA] (Cbz-Arg-Arg-{AMC}),Activity (relative) for substrate,[4],0%
CC(C)[C@H](NC(=O)[C@H](CCCNC(=N)N)NC(=O)N[C@@H](Cc1ccccc1)C(=O)O)C(=O)N[C@H](C=O)CCCNC(=N)N [antipain] ({Phe-CO}-Arg-Val-Arg-aldehyde),Residual activity of Benz-I,[1]; [7],89
same,Residual activity of Benz-II,[2]; [7],88
same,relative activity (residual),"[3]; Ca2+ +, inhibitor 10 μM",70%
N=C(N)c1ccccc1 [benzamidine],Residual activity of Benz-I,[1]; [6],79
same,Residual activity of Benz-II,[2]; [6],82
same,relative activity (residual),"[3]; Ca2+ +, inhibitor 1 mM",82%
CC(C)C[C@H](NC(=O)[C@@H](O)[C@H](N)Cc1ccccc1)C(=O)O [bestatin],Residual activity of Benz-I,[1]; [7],95
same,Residual activity of Benz-II,[2]; [7],97
same,relative activity (residual),"[3]; Ca2+ +, inhibitor 10 μM",97%
NC(=O)CI [iodoacetamide],Residual activity of Benz-I,[1]; [6],92
same,Residual activity of Benz-II,[2]; [6],87
same,relative activity (residual),"[3]; Ca2+ +, inhibitor 1 mM",96%
O=C(O)CI [iodoacetic acid],Residual activity of Benz-I,[1],99
same,Residual activity of Benz-II,[2],93
CC(=O)N[C@@H](CC(C)C)C(=O)N[C@@H](CC(C)C)C(=O)N[C@H](C=O)CCCNC(=N)N [leupeptin],Residual activity of Benz-I,[1]; [7],93
same,Residual activity of Benz-II,[2]; [7],96
same,relative activity (residual),"[3]; Ca2+ +, inhibitor 10 μM",92%
c1cnc2c(c1)ccc1cccnc12 [o-phenanthroline],Residual activity of Benz-I,[1]; [6],96
same,Residual activity of Benz-II,[2]; [6],86
same,relative activity (residual),"[3]; Ca2+ --, inhibitor 1 mM",91%
CC(C)CC(=O)N[C@H](C(=O)N[C@H](C(=O)N[C@@H](CC(C)C)[C@@H](O)CC(=O)N[C@@H](C)C(=O)N[C@@H](CC(C)C)[C@@H](O)CC(=O)O)C(C)C)C(C)C [pepstatin A] (Isovaleryl-VV[Sta]A[Sta]-OH),Residual activity of Benz-I,[1]; [7],100
same,Residual activity of Benz-II,[2]; [7],96
same,relative activity (residual),"[3]; Ca2+ +, inhibitor 10 μM",104%
O=S(=O)(F)Cc1ccccc1 [phenylmethanesulfonyl fluoride],Residual activity of Benz-I,[1]; [6],107
same,Residual activity of Benz-II,[2]; [6],103
same,relative activity (residual),"[3]; Ca2+ +, inhibitor 1 mM",112%
CC(C)C[C@H](NP(=O)(O)O[C@@H]1O[C@@H](C)[C@H](O)[C@@H](O)[C@H]1O)C(=O)N[C@@H](Cc1c[nH]c2ccccc12)C(=O)O [phosphoramidon],Residual activity of Benz-I,[1]; [7],101
same,Residual activity of Benz-II,[2]; [7],93
same,relative activity (residual),"[3]; Ca2+ +, inhibitor 10 μM",100%
CCCCCCCCCCCCOS(=O)(=O)[O-].[Na+] [sodium dodecyl sulfate],Residual activity of Benz-I,[1]; [8],94
same,Residual activity of Benz-II,[2]; [8],91
Cc1ccc(S(=O)(=O)NC(CCCCN)C(=O)CCl)cc1 (stereo not drawn) [tosyllysine chloromethyl ketone],Residual activity of Benz-I,[1]; [9],98
same,Residual activity of Benz-II,[2]; [9],95
same,relative activity (residual),"[3]; Ca2+ +, inhibitor 0.2 mM",108%
NC(N)=O [urea],Residual activity of Benz-I,[1]; [10],23
same,Residual activity of Benz-II,[2]; [10],29
chymostatin,Residual activity of Benz-I,[1]; [7],98
same,Residual activity of Benz-II,[2]; [7],99
same,relative activity (residual),"[3]; Ca2+ +, inhibitor 10 μM",98%
